Experimental data from US20260097111A1, “ETHER LIPIDS FOR HYPERACTIVATION OF MAMMALIAN DENDRITIC CELLS” (priority 2022, published 2026).
Entries after “also recorded” stand apart in the source; their conditions may differ.

Assays:
[1] = test system: human monocyte-derived dendritic cells (moDCs); assay: IL-1β secretion by human moDCs treated with lipid and R848; assay type: cell-based; details: for IL-1β secretion / IL-1β secretion, dependence on the NLRP3 inflammasome: human moDCs; for IL-1β secretion, dependence on the NLRP3 inflammasome: R848 + lipid with or without MCC950, one day, FIG. 3B
[2] = test system: human moDCs; assay: Cell viability of human moDCs (CellTiter-Glo); assay type: cell-based; details: human moDCs, R848 + lipid with MCC950; FIG. 3A
Method: After an overnight incubation, cells and culture supernatant were used for downstream readouts. One hundred and fifty microliters of cell supernatant were collected. Viability was measured using the CellTiter-Glo assay (Promega) which measures ATP content from cells. Fifty microliters of CellTiter-Glo reagent were added to 50 μL of cells. Luminescence was quantified on a SpectraMax m5e plate reader using an integration time of 500 milliseconds. Viability data were set relative to control conditions where cells were treated with only R848. To measure IL-1β secretion, the human IL-1β Lumit kit (Promega) was used to assay cell culture supernatant. Culture supernatant samples were incubated with enzyme-linked antibodies in a 384-well plate for 1 hour before addition of luminescent substrate. Samples were measured for luminescence with an integration time of 500 milliseconds. IL-1β concentrations of samples was determined by interpolation from a standard curve using 4-parameter logistic regression analysis. Studies were performed on three different human donor samples, and each biological condition was tested in triplicate. Graphed data represent means from each donor.
Measurement of Cytokine Secretion and Cell Viability. After an overnight incubation, cells and culture supernatant were used for downstream readouts. One hundred and fifty microliters of cell culture supernatant were collected. Viability was measured using the CellTiter-Glo assay (Promega) which measures ATP content from cells. Fifty microliters of CellTiter-Glo reagent were added to 50 μL of cells. Luminescence was quantified on a SpectraMax m5e plate reader using an integration time of 500 milliseconds. Viability data were set relative to control conditions where cells were treated with only R848. To measure IL-1β secretion, the human IL-1β Lumit kit (Promega) was used. […] Samples were measured for luminescence with an integration time of 500 milliseconds. IL-1β concentrations of samples was determined by interpolation from a standard curve using 4-parameter logistic regression analysis. […]

SMILES	hyperactivation of human dendritic cells ([1]; 41.25 μM lipid with R848 (Compound 1 also 20.6 μM))	IL-1β secretion ([1]; 41.25 μM lipid with R848, FIG. 17)	IL-1β secretion ([1]; 41.3 uM lipid with R848, FIG. 11)	IL-1β secretion ([1]; 24 hours, lipid (equimolar, in 0.5% KP407) with R848, FIG. 1B, listed as DGP)	IL-1β secretion ([1]; 24 hours, lipid in 4% KP407 with R848, FIG. 2B)	IL-1β secretion, dependence on the NLRP3 inflammasome [1]	cell viability [2]
CCCCCCCCCCCCCCCCCCCCCCOC[C@@H](O)COP(=O)(O)O [Compound 2, 1-docosyl-sn-glycerol-3-phosphate]	hyperactivating lipids; also recorded: hyperactivated dendritic cells	significant increase in IL-1β	robustly induced IL-113 secretion	IL-1β was secreted to a greater extent than 22:0 lyso PC; also recorded: more potent hyperactivator compared to DGPC (Compound 1) and 22:0 lyso PC	produced significantly more IL-1β	depend on the NLRP3 inflammasome for IL-1β secretion	–
CC(C)(O)c1coc(S(=O)(=O)NC(=O)Nc2c3c(cc4c2CCC4)CCC3)c1 [MCC950, reference compound]	–	–	–	–	–	diminished the IL-1β output	did not affect cell viability
